Legend:
interferon (α) = experiment: Cytokine Induction in Human Cells: interferon (α) by ELISA; assay type: cell-based; details: human PBMC, 18 to 24 hours incubation, compounds generally tested at 30-0.014 μM; read-out: Lowest Effective Concentration Interferon
Description: (§1) An in vitro human blood cell system is used to assess cytokine induction. Activity is based on the measurement of interferon and tumor necrosis factor (α) (IFN and TNF, respectively) secreted into culture media as described by Testerman et. al. In “Cytokine Induction by the Immunomodulators Imiquimod and S-27609”, Journal of Leukocyte Biology, 58, 365-372 (September, 1995).
(§2) Whole blood from healthy human donors is collected by venipuncture into EDTA vacutainer tubes. Peripheral blood mononuclear cells (PBMC) are separated from whole blood by density gradient centrifugation using Histopaque®-1077. Blood is diluted 1:1 with Dulbecco's Phosphate Buffered Saline (DPBS) or Hank's Balanced Salts Solution (HBSS). The PBMC layer is collected and washed twice with DPBS or HBSS and resuspended at 4×10^6 cells/mL in RPMI complete. The PBMC suspension is added to 48 well flat bottom sterile tissue culture plates (Costar, Cambridge, Mass. or Becton Dickinson Labware, Lincoln Park, N.J.) containing an equal volume of RPMI complete media containing test compound.
(§3) The compounds are solubilized in dimethyl sulfoxide (DMSO). The DMSO concentration should not exceed a final concentration of 1% for addition to the culture wells. The compounds are generally tested at concentrations ranging from 30-0.014 μM.
(§4) The solution of test compound is added at 60 μM to the first well containing RPMI complete and serial 3 fold dilutions are made in the wells. The PBMC suspension is then added to the wells in an equal volume, bringing the test compound concentrations to the desired range (30-0.014 μM). The final concentration of PBMC suspension is 2×10^6 cells/mL. The plates are covered with sterile plastic lids, mixed gently and then incubated for 18 to 24 hours at 37° C. in a 5% carbon dioxide atmosphere.
(§5) Following incubation the plates are centrifuged for 10 minutes at 1000 rpm (˜200×g) at 4° C. The cell-free culture supernatant is removed with a sterile polypropylene pipet and transferred to sterile polypropylene tubes. Samples are maintained at −30 to −70° C. until analysis. The samples are analyzed for interferon (α) by ELISA and for tumor necrosis factor (α) by ELISA or IGEN Assay
Interferon (α) concentration is determined by ELISA using a Human Multi-Species kit from PBL Biomedical Laboratories, New Brunswick, N.J. Results are expressed in pg/mL.
(§6) The table below lists the lowest concentration found to induce interferon and the lowest concentration found to induce tumor necrosis factor for each compound.

[1] = test system: tumor necrosis factor (α); experiment: Cytokine Induction in Human Cells: tumor necrosis factor (α) by ELISA or IGEN Assay; assay type: cell-based; parameters: key to Lowest Effective Concentration Tumor Necrosis Factor: A “*” indicates that no induction was seen at any of the tested concentrations; details: human PBMC, 18 to 24 hours incubation, compounds generally tested at 30-0.014 μM; for minimal effective concentration: read-out: Lowest Effective Concentration Tumor Necrosis Factor
Description: as §1, §2, §3, §4, §5
Tumor necrosis factor (α) (TNF) concentration is determined using ELISA kits available from Biosource International, Camarillo, Calif. Alternately, the TNF concentration can be determined by Origen® M-Series Immunoassay and read on an IGEN M-8 analyzer from IGEN International, Gaithersburg, Md. The immunoassay uses a human TNF capture and detection antibody pair from Biosource International, Camarillo, Calif. Results are expressed in pg/mL.
as §6

| SMILES | minimal effective concentration (interferon (α)) | minimal effective concentration [1] | melting point | Lowest Effective Concentration Tumor Necrosis Factor [1] |
| --- | --- | --- | --- | --- |
| CCCCc1nc2c(N)nc(C)c(C)c2n1CCCCNS(=O)(=O)N(C)C [Example 6, N′-[4-(4-Amino-2-butyl-6,7-dimethyl-1H-imidazo[4,5-c]pyridin-1-yl)butyl]-N,N-dimethylsulfamide] | 0.01 µM | 0.01 µM | 129.5 to 131 °C |  |
| Cc1nc(N)c2nc(C)n(CCCCNS(C)(=O)=O)c2c1C [Example 7, N-[4-(4-amino-2,6,7-trimethyl-1H-imidazo[4,5-c]pyridin-1-yl)butyl]methanesulfonamide] | 0.37 µM |  | 228 to 230 °C | * |
| CCOCc1nc2c(N)nc(C)c(C)c2n1CCCCNS(C)(=O)=O [Example 8, N-{4-[4-amino-2-(ethoxymethyl)-6,7-dimethyl-1H-imidazo[4,5-c]pyridin-1-yl]butyl}methanesulfonamide] | 0.04 µM | 10 µM | 165 to 167 °C |  |

Source: US6903113B2, “Urea substituted imidazopyridines” (3M Innovative Properties Company, priority 2000, dated 2005)
